Tests used:
[1] = tested on: CD8-MerTK in Ba/F3-CDM cells; experiment: In cell MER kinase assay, Ba/F3-CDM cell proliferation without IL-3 (Celltiter-Glo); assay type: cell-based, murine; conditions: 48 hours compound treatment, read-out: Cell growth inhibition (GI50)
Experimental: To establish an in cell kinase assay for MerTK kinase, the IL-3 dependent Ba/F3 cells of murine lymphoid origin was transfected with CD8-MerTK. […] For a routine cellular assay, Ba/F3-CDM cells were seeded at 2,000 cells per well in 384-well cell culture plate containing DMEM/10% FBS culture media and incubated for 24 hours before addition of compounds pre-diluted in culture media. Following compound treatment, cells were further incubated for 48 hours and the proliferation was measured. To discriminate a Ba/F3 growth inhibition by a specific inhibition of MerTK kinase following compound treatment vs growth inhibition due to a non-specific unintended cytotoxicity of compounds, we routinely carried out control sets of Ba/F3 cells in parallel that grown in IL3-supplemented growth media. In the presence of IL-3, the proliferation of Ba/F3 is no longer dependent on the MerTK activity. Cell growth and proliferation was measured with Celltiter-Glo™ system (Promega, USA) according to the manufacturer's instruction. The half-maximal growth inhibitory concentration (GI50) value was calculated with Prism6.0 software (GraphPad, USA).

[2] = target: human c-MER catalytic domain (Homo sapiens (Human), UniProt Q12866); experiment: LanthaScreen TR-FRET kinase assay, c-MER; conditions: read-out: Mer TK inhibition (IC50); Biochemical IC50, TR-FRET, 10 uM ATP
Chain of human c-MER catalytic domain (Q12866 587-858): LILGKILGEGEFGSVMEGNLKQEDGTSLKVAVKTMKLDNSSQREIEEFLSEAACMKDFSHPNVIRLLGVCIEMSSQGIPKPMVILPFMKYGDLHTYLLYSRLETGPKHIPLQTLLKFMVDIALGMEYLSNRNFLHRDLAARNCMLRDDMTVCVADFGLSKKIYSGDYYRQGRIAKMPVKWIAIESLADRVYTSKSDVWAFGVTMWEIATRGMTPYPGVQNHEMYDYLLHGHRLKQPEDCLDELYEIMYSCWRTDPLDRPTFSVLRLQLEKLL

Structure (SMILES) | GI50 [1] [nM] | IC50 [2] [nM]
CC(c1ccc(-c2ccc(CO[C@H]3CCC[C@@H]3NC(=O)c3cc(-c4ccc(F)nc4)cnc3N)cc2)cc1)N1CCN(C)CC1 (stereo in doubt) [Example 223, 6-amino-6′-fluoro-N-((1S,2S)-2-((4′-((R)-1-(4-methylpiperazin-1-yl)ethyl)-[1,1′-biphenyl]-4-yl)methoxy)cyclopentyl)-[3,3′-bipyridine]-5-carboxamide] | 100 to 500 | < 10
Cc1cccc(C)c1CO[C@H]1CCC[C@@H]1NC(=O)c1cc(-c2cnn(C)c2)cnc1N [Example 15, 2-amino-N-((1S,2S)-2-((2,6-dimethylbenzyl)oxy)cyclopentyl)-5-(1-methyl-1H-pyrazol-4-yl)nicotinamide] | > 1000 | > 1000
CCc1cc(CO[C@H]2CCC[C@@H]2NC(=O)c2cc(-c3cnn(C)c3)cnc2N)ccc1C [Example 21, 2-amino-N-((1S,2S)-2-((3-ethyl-4-methylbenzyl)oxy)cyclopentyl)-5-(1-methyl-1H-pyrazol-4-yl)nicotinamide] | > 1000 | < 10
CN1CCN(Cc2ccc(-c3ccc(OC[C@H]4CCC[C@@H]4NC(=O)c4cc(-c5cnn(C)c5)cnc4N)cc3)cc2)CC1 [Example 86, 2-amino-5-(1-methyl-1H-pyrazol-4-yl)-N-((1S,2S)-2-(((4′-((4-methylpiperazin-1-yl)methyl)-[1,1′-biphenyl]-4-yl)oxy)methyl)cyclopentyl)nicotinamide] | 100 to 500 | < 10
CNc1ccc(-c2ccc(CO[C@H]3CCC[C@@H]3NC(=O)c3cc(-c4cnn(C)c4)cnc3N)cc2)cc1 [Example 136, 2-amino-5-(1-methyl-1H-pyrazol-4-yl)-N-((1S,2S)-2-((4′-(methylamino)-[1,1′-biphenyl]-4-yl)methoxy)cyclopentyl)nicotinamide] | 100 to 500 | < 10
CN(C)c1ccc(-c2ccc(CO[C@H]3CCC[C@@H]3NC(=O)c3cc(-c4cnn(C)c4)cnc3N)cc2)cc1 [Example 137, 2-amino-N-((1S,2S)-2-((4′-(dimethylamino)-[1,1′-biphenyl]-4-yl)methoxy)cyclopentyl)-5-(1-methyl-1H-pyrazol-4-yl)nicotinamide] | < 100 | < 10
Cn1cc(-c2cnc(N)c(C(=O)N[C@H]3CCC[C@@H]3OCc3ccc(-c4ccc(CO)cc4)cc3)c2)cn1 [Example 142, 2-amino-N-((1S,2S)-2-((4′-(hydroxymethyl)-[1,1′-biphenyl]-4-yl)methoxy)cyclopentyl)-5-(1-methyl-1H-pyrazol-4-yl)nicotinamide] | 100 to 500 | < 10
Cn1cc(-c2cnc(N)c(C(=O)N[C@H]3CCC[C@@H]3OCc3ccc(-c4ccc(CCN)cc4)cc3)c2)cn1 [Example 145, 2-amino-N-((1S,2S)-2-((4′-(2-aminoethyl)-[1,1′-biphenyl]-4-yl)methoxy)cyclopentyl)-5-(1-methyl-1H-pyrazol-4-yl)nicotinamide] | > 1000 | < 10
CN1CCN(c2ccc(-c3ccc(CO[C@H]4CCC[C@@H]4NC(=O)c4cc(-c5cnn(C)c5)cnc4N)cc3)cc2)CC1 [Example 146, 2-amino-5-(1-methyl-1H-pyrazol-4-yl)-N-((1S,2S)-2-((4′-(4-methylpiperazin-1-yl)-[1,1′-biphenyl]-4-yl)methoxy)cyclopentyl)nicotinamide] | < 100 | < 10
Cn1cc(-c2cnc(N)c(C(=O)N[C@H]3CCC[C@@H]3OCc3ccc(-c4ccc(N5CCNCC5)nc4)cc3)c2)cn1 [Example 147, 2-amino-5-(1-methyl-1H-pyrazol-4-yl)-N-((1S,2S)-2-((4-(6-(piperazin-1-yl)pyridin-3-yl)benzyl)oxy)cyclopentyl)nicotinamide] | 100 to 500 | < 10
CN1CCN(c2ccc(-c3ccc(CO[C@H]4CCC[C@@H]4NC(=O)c4cc(-c5cnn(C)c5)cnc4N)cc3)cn2)CC1 [Example 148, 2-amino-5-(1-methyl-1H-pyrazol-4-yl)-N-((1S,2S)-2-((4-(6-(4-methylpiperazin-1-yl)pyridin-3-yl)benzyl)oxy)cyclopentyl)nicotinamide] | > 1000 | < 10
CCc1ccc(-c2ccc(CO[C@H]3CCC[C@@H]3NC(=O)c3cc(-c4cnn(C)c4)cnc3N)cc2)cc1 [Example 153, 2-amino-N-((1S,2S)-2-((4′-ethyl-[1,1′-biphenyl]-4-yl)-methoxy)cyclopentyl)-5-(1-methyl-1H-pyrazol-4-yl)nicotinamide] | 500 to 1000 | < 10
CN1CCN(Cc2ccc(-c3ccc(CO[C@H]4CCC[C@@H]4NC(=O)c4cc(-c5cnn(C)c5)cnc4N)c(F)c3)cc2)CC1 [Example 156, 2-amino-N-((1S,2S)-2-((3-fluoro-4′-((4-methylpiperazin-1-yl)-methyl)-[1,1′-biphenyl]-4-yl)methoxy)cyclopentyl)-5-(1-methyl-1H-pyrazol-4-yl)-nicotinamide] | < 100 | < 10
C[C@@H]1CN(Cc2ccc(-c3ccc(CO[C@H]4CCC[C@@H]4NC(=O)c4cc(-c5cnn(C)c5)cnc4N)c(F)c3)cc2)C[C@H](C)N1C [Example 157, 2-amino-N-((1S,2S)-2-((3-fluoro-4′-((cis-3,4,5-trimethylpiperazin-1-yl)methyl)-[1,1′-biphenyl]-4-yl)methoxy)cyclopentyl)-5-(1-methyl-1H-pyrazol-4-yl)-nicotinamide] | 100 to 500 | < 10
CN1CCN(Cc2ccc(-c3ccc(CO[C@H]4CCC[C@@H]4NC(=O)c4cc(-c5cnn(C)c5)cnc4N)cc3Cl)cc2)CC1 [Example 159, 2-amino-N-((1S,2S)-2-((2-chloro-4′-((4-methylpiperazin-1-yl)-methyl)-[1,1′-biphenyl]-4-yl)methoxy)cyclopentyl)-5-(1-methyl-1H-pyrazol-4-yl)-nicotinamide] | 100 to 500 | < 10
CN1CCN(CCc2ccc(-c3ccc(CO[C@H]4CCC[C@@H]4NC(=O)c4cc(-c5cnn(C)c5)cnc4N)cc3)cc2)CC1 [Example 161, 2-amino-5-(1-methyl-1H-pyrazol-4-yl)-N-((1S,2S)-2-((4′-(2-(4-methylpiperazin-1-yl)ethyl)-[1,1′-biphenyl]-4-yl)methoxy)cyclopentyl)nicotinamide] | < 100 | < 10
N#Cc1ccc(-c2cnc(N)c(C(=O)N[C@H]3CCC[C@@H]3OCc3ccccc3)c2)cc1 [Example 264, 2-amino-N-((1S,2S)-2-(benzyloxy)cyclopentyl)-5-(4-cyanophenyl)-nicotinamide] | – | > 1000
Nc1ncc(-c2ccc(Oc3ccccc3)cc2)cc1C(=O)N[C@H]1CCC[C@@H]1OCc1ccccc1 [Example 267, 2-amino-N-((1S,2S)-2-(benzyloxy)cyclopentyl)-5-(4-phenoxyphenyl)nicotinamide] | – | > 1000
Cc1ccc(CO[C@H]2CCC[C@@H]2NC(=O)c2cc(-c3ccc(CNCC4CCN(C)CC4)cc3)cnc2N)cc1C [Example 329, 2-amino-N-((1S,2S)-2-((3,4-dimethylbenzyl)oxy)cyclopentyl)-5-(4-((((1-methylpiperidin-4-yl)methyl)amino)methyl)phenyl)nicotinamide] | – | < 10
Cc1ccc(CO[C@H]2CCC[C@@H]2NC(=O)c2cc(-c3ccc(C(=O)N4CCC(N5CCCC5)CC4)c(C)c3)cnc2N)cc1C [Example 330] | – | < 10
Nc1ncc(-c2cnn(C3CCNCC3)c2)nc1C(=O)N[C@H]1CCCc2ccccc21 [Example 362, (S)-3-amino-6-(1-(piperidin-4-yl)-1H-pyrazol-4-yl)-N-(1,2,3,4-tetrahydronaphthalen-1-yl)pyrazine-2-carboxamide] | – | > 1000
CN1CCN(Cc2ccc(-c3ccc(CO[C@H]4CCC[C@@H]4NC(=O)c4cc(-c5ccc(Cl)c(F)c5)cnc4N)cc3)cc2)CC1 [Example 373, 2-amino-5-(4-chloro-3-fluorophenyl)-N-((1S,2S)-2-((4′-((4-methylpiperazin-1-yl)methyl)-[1,1′-biphenyl]-4-yl)methoxy)cyclopentyl)nicotinamide] | 100 to 500 | –
CN1CCN(Cc2ccc(-c3ccc(CO[C@H]4CCC[C@@H]4NC(=O)c4cc(C5=CCCCC5)cnc4N)cc3)cc2)CC1 [Example 382, 2-amino-5-(cyclohex-1-en-1-yl)-N-((1S,2S)-2-((4′-((4-methylpiperazin-1-yl)methyl)-[1,1′-biphenyl]-4-yl)methoxy)cyclopentyl)nicotinamide] | – | < 10
CN1CCN(Cc2ccc(-c3ccc(CO[C@H]4COCC4NC(=O)c4cc(-c5cnn(C)c5)cnc4N)cc3)cc2)CC1 (stereo partly shown) [Example 454] | – | < 10
CN1CCN(Cc2ccc(Nc3ccc(C(=O)N[C@H]4CCC[C@@H]4OCc4ccccc4)c(N)n3)cc2)CC1 [Example 456, 2-amino-N-((1S,2S)-2-(benzyloxy)cyclopentyl)-6-((4-((4-methylpiperazin-1-yl)methyl)phenyl)amino)nicotinamide] | – | > 1000
Nc1nc(Nc2ccccc2)ccc1C(=O)N[C@H]1CCC[C@@H]1OCc1ccccc1 [Example 457, 2-amino-N-((1S,2S)-2-(benzyloxy)cyclopentyl)-6-(phenylamino)-nicotinamide] | – | > 1000
CN1CCN(c2ccc(Nc3ccc(C(=O)N[C@H]4CCC[C@@H]4OCc4ccccc4)c(N)n3)cc2)CC1 [Example 458, 2-amino-N-((1S,2S)-2-(benzyloxy)cyclopentyl)-6-((4-(4-methylpiperazin-1-yl)phenyl)amino)nicotinamide] | – | > 1000

Reference: patent publication US10125118B2, “Heteroaryl compounds and their use as therapeutic drugs” (Dong-A Socio Holdings Co., Ltd., priority 2015, dated 2018)
